Measured values published in patent US20120108501A1, “Protease Inhibitors” (priority 2009, published 2012).

assay: Pharmacokinetics of released PEGylated protease inhibitor following P.O. administration of prodrugs in rats; format: in vivo, male Sprague-Dawley rats; parameters: AUCall Mean: concentration or dose not given beside the values; C24 Mean: unit not given here; conditions: concentration at 24 hours; mPEG5-atazanavir in plasma after PO administration of mPEG5-ATV or of the listed prodrug, rats (n = 4-5)
Experimental: Pharmacokinetic analysis of protease inhibitors described herein was conducted. To evaluate the pharmacokinetics of PEGylated protease inhibitor conjugates with releasable lipophilic attachments, test compounds were administered to male Sprague-Dawley rats.
At various times following test article administration, serial blood samples were collected from indwelling jugular vein catheters and transferred to micro-tubes containing 7.5 μL of 20% w/v K2EDTA as an anticoagulant. Following processing of the blood samples to plasma (10 minutes at 10000 rpm, Centrifuge Model: Kubota 3500), plasma concentrations of the test article or corresponding PEGylated molecule released from the test article was measured using LC-MS/MS methods. Pharmacokinetic parameters were estimated using noncompartmental methods.

Row | Compound | C24 Mean
1 | COCCOCCOCCOCCOCCOC(=O)NC(C(=O)NC(Cc1ccccc1)C(CN(Cc1ccc(-c2ccccn2)cc1)NC(=O)C(NC(=O)OC)C(C)(C)C)OC(=O)CNC(=O)C(N)Cc1ccccc1)C(C)(C)C.Cl (stereo not drawn) [Phe-Gly-mPEG5-Atazanavir HCl, Phe-Gly-mPEG5-Atazanavir Hydrochloride] | 0.169
2 | CCCC(=O)OC(CN(Cc1ccc(-c2ccccn2)cc1)NC(=O)C(NC(=O)OC)C(C)(C)C)C(Cc1ccccc1)NC(=O)C(NC(=O)OCCOCCOCCOCCOCCOC)C(C)(C)C (stereo not shown) [C3H7CO-mPEG5-ATV, mPEG5-Atazanavir Butyrate] | 0.00

same assay, conditions: concentration at 24 hours; mPEG6-atazanavir in plasma after PO administration of mPEG6-ATV or of the listed prodrug, rats (n = 4-5)

Row | Compound | C24 Mean
3 | CCCC(=O)OC(CN(Cc1ccc(-c2ccccn2)cc1)NC(=O)C(NC(=O)OC)C(C)(C)C)C(Cc1ccccc1)NC(=O)C(NC(=O)OCCOCCOCCOCCOCCOCCOC)C(C)(C)C (stereo not shown) [C3H7CO-mPEG6-ATV, mPEG6-Atazanavir Butyrate] | 0.00

same assay, conditions: mPEG3-atazanavir in plasma after PO administration of mPEG3-ATV or of the listed prodrug, rats (n = 4-5)

Row | Compound | AUCall Mean | Cmax Mean | MRT last Mean | Tmax* Median
4 | CCCCCC(=O)O[C@@H](CN(Cc1ccc(-c2ccccn2)cc1)NC(=O)[C@@H](NC(=O)OC)C(C)(C)C)[C@H](Cc1ccccc1)NC(=O)[C@@H](NC(=O)OCCOCCOCCOC)C(C)(C)C [C5H11CO-mPEG3-ATV, C5H11CO-mPEG3-atazanavir] | 33.9 ng·h/mL | 7.51 ng/mL | 2.78 h | 2.00 h
5 | CCC(=O)OC(CN(Cc1ccc(-c2ccccn2)cc1)NC(=O)C(NC(=O)OC)C(C)(C)C)C(Cc1ccccc1)NC(=O)C(NC(=O)OCCOCCOCCOC)C(C)(C)C (stereo not shown) [C2H5CO-mPEG3-ATV, mPEG3-Atazanavir Propionate] | 59.6 ng·h/mL | 17.8 ng/mL | 2.44 h | 0.500 h
6 | CCCCC(=O)OC(CN(Cc1ccc(-c2ccccn2)cc1)NC(=O)C(NC(=O)OC)C(C)(C)C)C(Cc1ccccc1)NC(=O)C(NC(=O)OCCOCCOCCOC)C(C)(C)C (stereo not shown) [C4H9CO-mPEG3-ATV, C4H9CO-mPEG3-atazanavir] | 40.1 ng·h/mL | 7.42 ng/mL | 3.00 h | 1.25 h

Results, then the compound that gave them:

Row | AUCall Mean | Cmax Mean | MRT last Mean | Tmax* Median | Compound
7 | 7.72 ng·h/mL | 18.7 ng/mL | 0.640 h | 0.250 h | CCCCCCCCCCCCCCCCOCC(COP(=O)(O)OC(CN(Cc1ccc(-c2ccccn2)cc1)NC(=O)C(NC(=O)OC)C(C)(C)C)C(Cc1ccccc1)NC(=O)C(NC(=O)OCCOCCOCCOC)C(C)(C)C)OC (stereo not shown) [PEG3-Atazanavir Monophospholipid, mPEG3-atazanavir monophospholipid]
8 | 4.10 ng·h/mL | 0.951 ng/mL | 1.93 h | 2.00 h | COCCOCCOCCOC(=O)N[C@H](C(=O)N[C@@H](Cc1ccccc1)[C@H](CN(Cc1ccc(-c2ccccn2)cc1)NC(=O)[C@@H](NC(=O)OC)C(C)(C)C)OCOCCOC)C(C)(C)C [mPEG3 ATV-Methyl ethyl methyl ether, mPEG3-Atazanavir Methyl Ethyl Methyl Ether]

same assay, conditions: mPEG5-atazanavir in plasma after PO administration of mPEG5-ATV or of the listed prodrug, rats (n = 4-5)

Row | Compound | AUCall Mean | Cmax Mean | MRT last Mean | Tmax Median
9 | CCOC(CC)OC(CN(Cc1ccc(-c2ccccn2)cc1)NC(=O)C(NC(=O)OC)C(C)(C)C)C(Cc1ccccc1)NC(=O)C(NC(=O)OCCOCCOCCOCCOCCOC)C(C)(C)C (mixture of isomers) [ATV-1-Ethoxy propoxy-mPEG5, atazanavir-1-ethoxypropoxy-mPEG5] | 235 ng·h/mL | 55.3 ng/mL | 3.53 h | 1.00 h
10 | COCCOCCOCCOCCOCCOC(=O)NC(C(=O)NC(Cc1ccccc1)C(CN(Cc1ccc(-c2ccccn2)cc1)NC(=O)C(NC(=O)OC)C(C)(C)C)OC(=O)CNC(=O)C(N)Cc1ccccc1)C(C)(C)C.Cl (stereo not drawn) [Phe-Gly-mPEG5-Atazanavir HCl, Phe-Gly-mPEG5-Atazanavir Hydrochloride] | 33.7 ng·h/mL | 3.10 ng/mL | 12.0 h | 12.0 h
11 | CCCC(=O)OC(CN(Cc1ccc(-c2ccccn2)cc1)NC(=O)C(NC(=O)OC)C(C)(C)C)C(Cc1ccccc1)NC(=O)C(NC(=O)OCCOCCOCCOCCOCCOC)C(C)(C)C (stereo not shown) [C3H7CO-mPEG5-ATV, mPEG5-Atazanavir Butyrate] | 3.92 ng·h/mL | 1.44 ng/mL | 0.984 h | 1.00 h
12 | CCCCC(=O)O[C@@H](CN(Cc1ccc(-c2ccccn2)cc1)NC(=O)[C@@H](NC(=O)OC)C(C)(C)C)[C@H](Cc1ccccc1)NC(=O)[C@@H](NC(=O)OCCOCCOCCOCCOCCOC)C(C)(C)C [C4H9CO-PEG5-ATV, C4H9CO-mPEG5-atazanavir] | 39.3 ng·h/mL | 9.46 ng/mL | 2.43 h | 0.750 h

same assay, conditions: mPEG6-atazanavir in plasma after PO administration of mPEG6-ATV or of the listed prodrug, rats (n = 4-5)

Row | Compound | AUCall Mean | Cmax Mean | MRT last Mean | Tmax Median
13 | CCCCC(=O)OC(CN(Cc1ccc(-c2ccccn2)cc1)NC(=O)C(NC(=O)OC)C(C)(C)C)C(Cc1ccccc1)NC(=O)C(NC(=O)OCCOCCOCCOCCOCCOCCOC)C(C)(C)C (stereo not shown) [C4H9CO-mPEG6-ATV, C4H9CO-mPEG6-atazanavir] | 36.5 ng·h/mL | 13.8 ng/mL | 1.14 h | 0.750 h
14 | CCOC(CC)OC(CN(Cc1ccc(-c2ccccn2)cc1)NC(=O)C(NC(=O)OC)C(C)(C)C)C(Cc1ccccc1)NC(=O)C(NC(=O)OCCOCCOCCOCCOCCOCCOC)C(C)(C)C (mixture of isomers) [ATV-1-Ethoxy propoxy-mPEG6, atazanavir-1-ethoxypropoxy-mPEG6] | 185 ng·h/mL | 83.0 ng/mL | 5.16 h | 0.750 h
15 | CCCC(=O)OC(CN(Cc1ccc(-c2ccccn2)cc1)NC(=O)C(NC(=O)OC)C(C)(C)C)C(Cc1ccccc1)NC(=O)C(NC(=O)OCCOCCOCCOCCOCCOCCOC)C(C)(C)C (stereo not shown) [C3H7CO-mPEG6-ATV, mPEG6-Atazanavir Butyrate] | 6.16 ng·h/mL | 2.22 ng/mL | 1.36 h | 2.00 h
16 | CCCCCC(=O)O[C@@H](CN(Cc1ccc(-c2ccccn2)cc1)NC(=O)[C@@H](NC(=O)OC)C(C)(C)C)[C@H](Cc1ccccc1)NC(=O)[C@@H](NC(=O)OCCOCCOCCOCCOCCOCCOC)C(C)(C)C [C5H11CO-mPEG6-ATV, C5H11CO-mPEG6-atazanavir] | 78.1 ng·h/mL | 21.4 ng/mL | 5.01 h | 0.500 h
17 | COCCOCCOCCOCCOCCOCCOC(=O)NC(C(=O)NC(Cc1ccccc1)C(CN(Cc1ccc(-c2ccccn2)cc1)NC(=O)C(NC(=O)OC)C(C)(C)C)OC(C)=O)C(C)(C)C (stereo not shown) [Acetyl-mPEG6-Atazanavir, O-Acetyl-mPEG6-Atazanavir] | 150 ng·h/mL | 10.3 ng/mL | 13.8 h | 6.00 h

The next lines start with the values.

Row | AUCall Mean | Cmax Mean | MRT last Mean | Tmax Median | Compound
18 | 216 ng·h/mL | 27.4 ng/mL | 11.0 h | 1.50 h | COCCOCCOCCOCCOCCOCCOC(=O)NC(C(=O)NC(Cc1ccccc1)C(CN(Cc1ccc(-c2ccccn2)cc1)NC(=O)C(NC(=O)OC)C(C)(C)C)OC(=O)C(CC(C)C)NC(=O)C(N)Cc1ccccc1)C(C)(C)C.Cl (stereo not drawn) [Phe-Leu-mPEG6-ATV, Phe-Leu-mPEG6-Atazanavir Hydrochloride]
19 | 418 ng·h/mL | 37.2 ng/mL | 13.8 h | 1.50 h | COCCOCCOCCOCCOCCOCCOC(=O)N[C@H](C(=O)N[C@@H](Cc1ccccc1)[C@H](CN(Cc1ccc(-c2ccccn2)cc1)NC(=O)[C@@H](NC(=O)OC)C(C)(C)C)OC(=O)[C@H](Cc1ccccc1)NC(=O)[C@@H](N)CC(C)C)C(C)(C)C.Cl [Leu-Phe-mPEG6-ATV, Leu-Phe-mPEG6-Atazanavir Hydrochloride]
20 | 40.6 ng·h/mL | 2.07 ng/mL | 13.8 h | 4.00 h | mPEG6-atazanavir-ethoxy-CME-Leu-Leu [mPEG6-ATV-Ethoxy-CM-Leu-Leu]
21 | 66.0 ng·h/mL | 11.1 ng/mL | 4.47 h | 2.00 h | CCCCCCCC(=O)OC(CN(Cc1ccc(-c2ccccn2)cc1)NC(=O)C(NC(=O)OC)C(C)(C)C)C(Cc1ccccc1)NC(=O)C(NC(=O)OCCOCCOCCOCCOCCOCCOC)C(C)(C)C (stereo not shown) [C7H15CO-mPEG6-ATV, O-Octanoyl-mPEG6-Atazanavir]
22 | 73.1 ng·h/mL | 4.05 ng/mL | 18.9 h | 12.0 h | COCCOCCOCCOCCOCCOCCOC(=O)NC(C(=O)NC(Cc1ccccc1)C(CN(Cc1ccc(-c2ccccn2)cc1)NC(=O)C(NC(=O)OC)C(C)(C)C)OC(=O)C(N)C(C)C)C(C)(C)C.Cl [mPEG6-ATV-L-valine, mPEG6-Atazanavir-L-Valine HCl]
23 | 279 ng·h/mL | 27.0 ng/mL | 16.2 h | 2.00 h | COCCOCCOCCOCCOCCOCCOC(=O)N[C@H](C(=O)N[C@@H](Cc1ccccc1)[C@H](CN(Cc1ccc(-c2ccccn2)cc1)NC(=O)[C@@H](NC(=O)OC)C(C)(C)C)OC(=O)[C@H](Cc1ccccc1)NC(=O)[C@@H](N)Cc1ccccc1)C(C)(C)C.Cl [Phe-Phe-mPEG6-ATV, Phe-Phe-mPEG6-Atazanavir Hydrochloride]
24 | 102 ng·h/mL | 7.06 ng/mL | 21.4 h | 3.25 h | COCCOCCOCCOCCOCCOCCOC(=O)NC(C(=O)NC(Cc1ccccc1)C(CN(Cc1ccc(-c2ccccn2)cc1)NC(=O)C(NC(=O)OC)C(C)(C)C)OC(=O)COCCOC(=O)C(Cc1ccccc1)NC(=O)C(N)Cc1ccccc1)C(C)(C)C (stereo not shown) [mPEG6-ATV-CME-Phe-Phe, mPEG6-atazanavir-ethoxy-CME-Phe-Phe]
25 | 3.07 ng·h/mL | 0.634 ng/mL | 15.1 h | 1.00 h | CCNC(=O)OC(CN(Cc1ccc(-c2ccccn2)cc1)NC(=O)C(NC(=O)OC)C(C)(C)C)C(Cc1ccccc1)NC(=O)C(NC(=O)OCCOCCOCCOCCOCCOCCOC)C(C)(C)C (stereo not shown) [mPEG6-ATV-ethylcarbamate, mPEG6-Atazanavir-NH-ethyl carbamate]
